Several values for one entry are separate records, joined by “and”; a condition that tells them apart may be missing. Identical values can stand only once. Entries after “also recorded” stand apart in the source; their conditions may differ. Like-named read-outs stand apart in the source and are kept apart here.
Columns and labels:
HEL cells [1] = assay: Proliferation inhibition assay (WST-1); assay type: cell-based, human
From the text: (§1) The HEL, SET2 and K562 human cell lines were purchased from the German Collection of Microorganisms and Cell Cultures (DSMZ, Braunschweig, Germany). Murine BaF/3 and BaF/3-EPOR cells expressing JAK2 wild-type (wt) or JAK2V617F were donated by R. Skoda (Basel, Switzerland).

K562 cells [2] = assay: Proliferation inhibition assay (WST-1); assay type: cell-based, human
From the text: as §1

SET2 cells [3] = assay: Proliferation inhibition assay (WST-1); assay type: cell-based, human
From the text: as §1

SET2 cells [4] = assay: Apoptosis by Annexin V flow cytometry; assay type: cell-based, human; conditions: SET2 cells exposed for 48 h
From the text: Results are expressed ad percent viable cells compared to control wells containing vehicle (DMSO) only. The fraction of necrotic cells was identified as the double-positive Annexin V/propidium iodide cells.

[5] = test system: JAK2, STAT5, and 4EBP1 in SET2 cells; assay: Western blot of mTOR and JAK/STAT signaling; assay type: cell-based, human
Method: (§2) Cells were resuspended in RIPA lysis buffer (50 mM pH 7.4 Tris-HCl, 150 mM NaCl, 1% NP-40, 1 mMEDTA) containing a proteinase inhibitor cocktail (Halt Protease Inhibitor Cocktail Kit, PIERCE, Rockford, Ill., US) and subjected to sodium dodecyl sulphate polyacrylamide gel electrophoresis separation and western blotting onto Immunoblot PVDF membrane (BioRad, Hercules, Calif., US), according to standard protocols.
SET2 cells were incubated for 24 h with increasing concentrations of the drugs, and the level of total and phosphorylated JAK2, STAT5, and 4EBP1 was analyzed by western blot. Tubulin was used for loading normalization.

[6] = test system: BaF/3 cells expressing JAK2 wild-type; assay: Proliferation inhibition assay (WST-1); assay type: cell-based, murine; conditions: Mus musculus, BaF3; BaF/3 WT; mIL-3 in culture medium
From the text: as §1

[7] = test system: BaF/3 cells expressing JAK2V617F; assay: Proliferation inhibition assay (WST-1); assay type: cell-based, murine; conditions: Mus musculus, BaF3; BaF/3 V617F, absence of IL-3
From the text: as §1

[8] = test system: BaF/3-EPOR cells expressing JAK2 wild-type; assay: Proliferation inhibition assay (WST-1); assay type: cell-based, murine; conditions: Mus musculus; BaF/3-EPOR WT; EPO in culture medium
From the text: as §1

[9] = test system: BaF/3-EPOR cells expressing JAK2V617F; assay: Proliferation inhibition assay (WST-1); assay type: cell-based, murine
From the text: as §1

UKE-1 cells = assay: Clonogenic assay; assay type: cell-based; conditions: compared with K562
[10] = test system: Peripheral Blood mononuclear cells from PV patients; assay: EEC colony formation assay; assay type: cell-based; conditions: Homo sapiens
[11] = test system: CD34+ cells from MPN patients; assay: Clonogenic assay with JAK2V617F single-colony genotyping; assay type: cell-based, human; conditions: for % decrease V617F: RAD001 50 nM vs without
Method: Samples of peripheral blood (PB) or bone marrow (BM) were obtained from patients diagnosed with PV or PMF (2008 WHO criteria) under a protocol approved by Institutional Review Board of Azienda Ospedaliera-Universitaria Careggi and after obtaining an informed consent. Healthy donors of hematopoietic stem cells provided informed consent to donate excess CD34^+ cells. Research was carried out according to the principles of Declaration of Helsinki. CD34^+ cells were immunomagnetically selected as described. The JAK2V617F mutational status was determined by a quantitative real-time PCR assay in granulocytes.
BM mononuclear cells from MPN patients or control subjects were plated at 1×10^5/mL in methylcellulose (MethoCult; StemCell Technologies, Vancouver, Canada) supplemented with SCF 50 ng/mL, IL-3 10 ng/mL, IL-6 10 ng/mL, GM-CSF 10 ng/mL, G-CSF 10 ng/mL and EPO 3 U/mL for the growth of BFU-E and CFU-GM. EEC assay was performed by plating 2.5×10^5/mL PB mononuclear cells from PV patients in methylcellulose containing leukocyte-conditioned medium without EPO (StemCell Technol., cat. No. #04531). For the growth of CFU-Mk, 5×10^4/mL CD34^+ cells were plated in a 24-well plate in Megacult Collagen and medium with lipids (StemCell Technol.) supplemented with Thrombopoietin 50 ng/mL, IL-3 10 ng/mL, IL-6 10 ng/mL. Colonies were enumerated on day 14 according to standard criteria.
For JAK2V617F single-colony genotyping an allele-specific PCR assay was used. Well-separated colonies (at least 40 colonies per point) were individually plucked off the semisolid medium in 5 μL DNase/RNase-free water, lysed at 95° C. for 5 minutes, and subjected to PCR amplification and gel electrophoresis.

SET2 cells [12] = assay: Cell cycle distribution analysis by flow cytometry; assay type: cell-based, human; conditions: at IC50 concentration
HEL cells [13] = assay: Cell cycle distribution analysis by flow cytometry; assay type: cell-based, human; conditions: at IC50 concentration
[14] = test system: 4E-BP1 and STAT5 in Ba/F3 and Ba/F3-EPOR cells; assay: Western blot of 4E-BP1 and STAT5 phosphorylation; assay type: cell-based, murine
Method: as §2
To better characterize the correlation between JAK2V617F mutation and mTOR activation, as well as the consequences of mTOR inhibition on STAT5 phosphorylation, BA/F3 and Ba/F3-EPOR cells were used. First, it was observed that 4E-BP1 was minimally phosphorylated in JAK2 wt Ba/F3 and Ba/F3-EPOR cells deprived of cytokines, while it was hyper-phosphorylated in V617F cells, supporting previous data on Akt constitutive activation in JAK2V617F-mutated cells. […] STAT5 phosphorylation was greater in V617F cells compared to IL-3- or EPO-deprived JAK2 wt Ba/F3 or Ba/F3-EPOR cells, and it did increase substantially after cytokine exposure.

K562 cells [15] = assay: Clonogenic assay in agar; conditions: Homo sapiens, K562, 168 h, read-out: IC50, clonogenic assay
HEL cells [16] = assay: Clonogenic assay in agar; conditions: Homo sapiens, 168 h, read-out: IC50, clonogenic assay
SET2 cells [17] = assay: Clonogenic assay in agar
Ba/F3 JAK2 V617F cells = assay: Clonogenic assay in agar; conditions: Mus musculus, BaF3, 168 h, read-out: IC50, clonogenic assay
[18] = test system: Ba/F3 epoR JAK2 wild-type cells; assay: Clonogenic assay in agar; conditions: Mus musculus, BaF3, 168 h, read-out: IC50, clonogenic assay
[19] = test system: Ba/F3 epoR JAK2 V617F cells; assay: Clonogenic assay in agar; conditions: Mus musculus
[20] = SET2, 24 h, increasing concentrations
[21] = Homo sapiens, SET-2, SET2, individual drug, read-out: IC50, proliferation inhibition
[22] = Homo sapiens, SET-2, read-out: IC50 of Cmp A in drug combination with PP242
[23] = Homo sapiens, SET-2, read-out: IC50 of Cmp A in drug combination with RAD001

SMILES: NC(=O)NO [HuOH, hydroxyurea]
- IC50 (HEL cells [1]): 410 µM
- IC50 (K562 cells [2]): 4910 µM
- IC50 (SET2 cells [3]; SET2, read-out: IC50, proliferation inhibition): 330 µM
- cell apoptosis (Annexin V-positive cells) (SET2 cells [4]): induced dose-dependent cell apoptosis
- phosphorylation of 4E-BP1 [5, 20]: did not affect
- phosphorylation of STAT5 [5, 20]: did not affect

SMILES: CO[C@H]1C[C@@H]2CC[C@@H](C)[C@@](O)(O2)C(=O)C(=O)N2CCCC[C@H]2C(=O)O[C@H]([C@H](C)C[C@@H]2CC[C@@H](OCCO)[C@H](OC)C2)CC(=O)[C@H](C)/C=C(\C)[C@@H](O)[C@@H](OC)C(=O)[C@H](C)C[C@H](C)/C=C/C=C/C=C/1C [RAD001, Everolimus]
- IC50 (HEL cells [1]; Homo sapiens): 14 µM
- IC50 (K562 cells [2]; Homo sapiens): 16 µM
- IC50 (SET2 cells [3]; Homo sapiens, SET-2, read-out: IC50 of the mTOR inhibitor in drug combination with Cmp A): 0.0031 µM
- IC50 (SET2 cells [3]; [21]): 17 µM
- IC50 [6]: 2.6 µM
- IC50 [7]: 0.01 ± 0.004 µM
- IC50 [8]: > 10 µM
- IC50 ([9]; BaF/3-EPOR V617F + EPO, read-out: IC50, proliferation inhibition): 1.23 µM
- IC50 ([9]; BaF/3-EPOR V617F, absence of EPO, individual drug, read-out: IC50, proliferation inhibition): 0.651 ± 0.05 µM
- IC50 ([9]; Mus musculus, BaF/3-EPOR V617F + EPO, read-out: IC50, proliferation inhibition): 1.21 µM
- IC50 ([9]; Mus musculus, JAK2V617F Ba/F3-EPOR, proliferation, median of at least 3 experiments, read-out: IC50 of the mTOR inhibitor in drug combination with Cmp A): 0.363 µM
- clonogenic potential (UKE-1 cells): impaired the clonogenic potential
- IC50 ([10]; PBMC, read-out: IC50 of the mTOR inhibitor in drug combination with Cmp A): 0.0019 µM
- IC50 ([10]; PBMC from PV patients, individual drug, read-out: IC50, clonogenic potential (EEC)): 0.015 ± 0.01 µM
- JAK2 genotype V617F colonies (%) ([11]; Pat. # 1, RAD001 50 nM): 6%
- JAK2 genotype Wild-type colonies (%) ([11]; Pat. # 1, RAD001 50 nM): 94%
- % decrease V617F ([11]; Pat. # 1): 70%
- JAK2 genotype V617F colonies (%) ([11]; Pat. # 2, RAD001 50 nM): 40%
- JAK2 genotype Wild-type colonies (%) ([11]; Pat. # 2, RAD001 50 nM): 60%
- % decrease V617F ([11]; Pat. # 2): 15%
- JAK2 genotype V617F colonies (%) ([11]; Pat. # 3, RAD001 50 nM): 57%
- JAK2 genotype Wild-type colonies (%) ([11]; Pat. # 3, RAD001 50 nM): 43%
- % decrease V617F ([11]; Pat. # 3): 21%
- JAK2 genotype V617F colonies (%) ([11]; Pat. # 4, RAD001 50 nM): 40%
- JAK2 genotype Wild-type colonies (%) ([11]; Pat. # 4, RAD001 50 nM): 58%
- % decrease V617F ([11]; Pat. # 4): 17%
- JAK2 genotype V617F colonies (%) ([11]; Pat. # 5, RAD001 50 nM): 9%
- JAK2 genotype Wild-type colonies (%) ([11]; Pat. # 5, RAD001 50 nM): 91%
- % decrease V617F ([11]; Pat. # 5): 72%
- % decrease V617F, Mean ± SD ([11]; mean of 5 patients, RAD001 50 nM): 39% and 39 ± 29%
- cell apoptosis (Annexin V-positive cells) (SET2 cells [4]): largely ineffective in inducing cell death; also recorded: did not induce cell death
- cell cycle effect (SET2 cells [12]): cell cycle arrest of SET2 and HEL cells in the G0/G1 phase
- cell cycle effect (HEL cells [13]): cell cycle arrest of SET2 and HEL cells in the G0/G1 phase
- phosphorylated JAK2 [5, 20]: unaffected
- phosphorylation of 4E-BP1 [5, 20]: dose-dependently reduced phosphorylation; also recorded: inhibited the phosphorylation
- phosphorylation of STAT5 [5, 20]: dose-dependently reduced phosphorylation; also recorded: appreciable decrease of STAT5 phosphorylation
- total JAK2 [5, 20]: unaffected
- STAT5 phosphorylation ([14]; evident at 60 min, up to 24 h, not shown): significantly downregulated
- 4E-BP1 phosphorylation ([14]; persisted up to at least 24 h, data not shown): marked inhibition
- IC50 (K562 cells [15]): 10 µM
- IC50 (HEL cells [16]): 0.085 ± 0.03 µM
- IC50 (SET2 cells [17]; Homo sapiens, SET-2, read-out: IC50 of the mTOR inhibitor in drug combination with Cmp A, SET2, clonogenic agar assay, median of at least 3 experiments): 0.007 µM
- IC50 (SET2 cells [17]; read-out: IC50, clonogenic assay, SET2, colonies day 7, individual drug): 0.13 µM and 0.044 µM
- IC50 (Ba/F3 JAK2 V617F cells): 0.006 ± 0.002 µM
- IC50 [18]: 0.022 ± 0.01 µM
- IC50 ([19]; BaF3, 168 h, read-out: IC50, clonogenic assay): 0.004 ± 0.002 µM
- IC50 ([19]; BaF3, read-out: IC50 of the mTOR inhibitor in drug combination with Cmp A): 0.0011 µM

SMILES: N#CC[C@H](C1CCCC1)n1cc(-c2ncnc3[nH]ccc23)cn1 [Compound A, (3R)-3-cyclopentyl-3-[4-(7H-pyrrolo[2,3-d]pyrimidin-4-yl)-1H-pyrazol-1-yl]propanenitrile]
- IC50 (SET2 cells [3]; [22]): 0.047 µM
- IC50 (SET2 cells [3]; [23]): 0.029 µM
- IC50 ([10]; PBMC, read-out: IC50, clonogenic potential (EEC)): 0.0018 ± 0.001 µM
- IC50 ([10]; PBMC, read-out: IC50 of Cmp A in drug combination with PP242): 0.0001 µM
- IC50 ([10]; PBMC, read-out: IC50 of Cmp A in drug combination with RAD001): 0.0002 µM
- cell apoptosis (Annexin V-positive cells) (SET2 cells [4]): dose-dependently potent inducers of cell apoptosis; also recorded: potently induced cell apoptosis
- phosphorylated JAK2 [5]: markedly and dose-dependently reduced phosphorylation
- phosphorylation of 4E-BP1 [5]: unaffected
- phosphorylation of STAT5 [5]: markedly and dose-dependently reduced phosphorylation
- IC50 (K562 cells [15]): > 15 µM
- IC50 (HEL cells [16]): 0.374 ± 0.177 µM
- IC50 (SET2 cells [17]; [22]): 0.0076 µM
- IC50 (SET2 cells [17]; [23]): 0.004 µM

SMILES: Cc1[nH]c2ccccc2c1CCNCc1ccc(/C=C/C(=O)NO)cc1 [Panobinostat]
- IC50 (HEL cells [1]; Homo sapiens): 0.008 ± 0.003 µM
- IC50 (K562 cells [2]; Homo sapiens): 0.031 ± 0.008 µM
- IC50 (SET2 cells [3]; [21]): 0.007 ± 0.002 µM
